Read-outs that look alike come from different tables or passages of the source.
What was measured:
[1] = test system: cell growth and metabolism; design: method as in PMID 7929991; conditions: cited from earlier work
[2] = target: T1, cathepsin S (Homo sapiens, UniProt P25774); assay: Kinetics of cathepsin S inhibition by metal ions, fluorogenic substrate Z-Val-Val-Arg-AMC; type: biochemical; conditions: for Mechanism: specific velocity plot / titration
T1 construct: made in house; host or cells: E. coli

[3] = target: T2, cathepsin L (Homo sapiens, UniProt P07711); assay: Kinetics of cathepsin L inhibition by metal ions, fluorogenic substrate Z-Leu-Arg-AMC; type: biochemical; conditions: for Mechanism: specific velocity plot
T2 construct: made in house; host or cells: E. coli

[4] = target: T3, cathepsin K (Homo sapiens, UniProt P43235); assay: Kinetics of cathepsin K inhibition by metal ions, fluorogenic substrate Z-Phe-Arg-AMC; type: biochemical; conditions: for Mechanism: specific velocity plot / titration
T3 construct: made in house; host or cells: E. coli
T3 sequence (P43235 115-329): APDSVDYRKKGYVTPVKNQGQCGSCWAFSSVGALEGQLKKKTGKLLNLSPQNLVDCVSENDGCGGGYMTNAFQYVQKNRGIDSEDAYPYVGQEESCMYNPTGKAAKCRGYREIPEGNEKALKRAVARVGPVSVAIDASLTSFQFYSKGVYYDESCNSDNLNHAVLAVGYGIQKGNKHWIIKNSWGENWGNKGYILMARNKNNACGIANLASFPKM

[5] = target: T2, cathepsin L; assay: Degradation of insoluble bovine neck ligament elastin by cathepsin L; type: biochemical; conditions: metal ions 0.5 mM
Experimental: (§1) Degradation of insoluble elastin was performed and analyzed according to the protocol in ref. [51]. Briefly, reactions were performed using 200 µL samples, each containing 1 mg of insoluble bovine neck ligament elastin. The enzymes were added to a final concentration of 0.2 µM and the metal ions to a final concentration of 0.5 mM. Samples were incubated at 37 °C for 120 min on an Eppendorf Thermomixer with shaking at 1200 rpm, and the reactions were then stopped by the addition of trichloroacetic acid to a final concentration of 5% (w/V). Samples were cleared by centrifugation and 100 µL of the supernatant was mixed with 1400 µL of 0.2 M sodium borate buffer and 500 µL of a 0.15 mg/mL solution of fluorescamine in acetone. The fluorescence of the samples was measured at an excitation wavelength of λex = 390 nm and emission wavelength of λem = 480 nm. Blank samples without added enzyme were run in parallel and their fluorescence values were subtracted from the samples. Experiments were performed in three replicates of each sample and each experiment was repeated multiple times to assure reproducibility of the results.

[6] = target: T1, cathepsin S; assay: Degradation of insoluble bovine neck ligament elastin by cathepsin S; type: biochemical; conditions: metal ions 0.5 mM
Experimental: as §1

[7] = target: T3, cathepsin K; assay: Degradation of insoluble bovine neck ligament elastin by cathepsin K; type: biochemical; conditions: metal ions 0.5 mM
Experimental: as §1

[8] = target: cathepsins L, K, and S; assay: Kinetics of inhibition, summary over all tested peptidases; type: biochemical, human; conditions: range over all peptidases tested (cathepsins L, K, S); read-out: equilibrium dissociation constants (inhibition constants)
[9] = Z-Val-Val-Arg-AMC, 25 °C, 0.1 M sodium acetate buffer pH 5.5, read-out: KX
[10] = effect on catalytic rate, general modifier mechanism
[11] = effect on substrate affinity, general modifier mechanism
[12] = Z-Leu-Arg-AMC, 25 °C, 0.1 M sodium acetate buffer pH 5.5, read-out: KX
[13] = Z-Phe-Arg-AMC, 25 °C, 0.1 M sodium acetate buffer pH 5.5, read-out: KX

T1 sequence (P25774 115-331): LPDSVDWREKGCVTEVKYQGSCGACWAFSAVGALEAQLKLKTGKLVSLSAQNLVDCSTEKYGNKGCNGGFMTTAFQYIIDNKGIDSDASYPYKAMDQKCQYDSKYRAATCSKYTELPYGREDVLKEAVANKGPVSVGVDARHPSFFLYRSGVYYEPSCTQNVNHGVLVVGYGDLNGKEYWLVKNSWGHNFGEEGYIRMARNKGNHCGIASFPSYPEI
T2 sequence (P07711 114-333): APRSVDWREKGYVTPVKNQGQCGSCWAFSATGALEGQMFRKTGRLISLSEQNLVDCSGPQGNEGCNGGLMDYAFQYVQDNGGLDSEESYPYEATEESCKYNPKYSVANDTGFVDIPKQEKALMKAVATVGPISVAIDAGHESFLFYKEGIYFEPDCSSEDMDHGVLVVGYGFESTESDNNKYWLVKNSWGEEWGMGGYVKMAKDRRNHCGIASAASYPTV

SMILES | toxic effects on cell growth and metabolism [1] | Ki [2, 9] | β [2, 10] | α [2, 11] | Ki ([2]; read-out: KX) | Mechanism [2] | residual enzyme activity at saturation ([2]; synthetic substrate) | Ki [3, 12] | Ki ([3]; read-out: KX) | Mechanism [3] | Ki [4, 13] | β [4, 10] | α [4, 11] | Ki ([4]; read-out: KX) | Mechanism [4] | residual enzyme activity at saturation ([4]; synthetic substrate) | inhibition of elastin degradation, comparison in words [5] | inhibition of elastin degradation, comparison in words [6] | inhibition of elastin degradation, comparison in words [7] | Ki [8]
O=[N+]([O-])[O-].O=[N+]([O-])[O-].O=[N+]([O-])[O-].[Ga+3] [Ga^3+, Ga(NO3)3] | no significant toxic effects | 3.7 ± 0.6 µM | 3.3 ± 0.5 | 11.3 ± 1.0 | ~4 µM | Hyperbolic mixed | about 20% | 0.6 ± 0.04 µM | 0.6 µM | Linear specific | 4.1 ± 0.8 µM | 2.4 ± 1.4 | 11.5 ± 1.0 | ~4 µM | Hyperbolic mixed | about 20% | most potent inhibitor | – | – | –
[Zn+2] [Zn^2+] | – | 2.9 ± 0.5 µM | – | – | – | Linear specific | – | 7.5 ± 0.9 µM | – | Linear specific | 7.3 ± 0.3 µM | – | – | – | Linear specific | – | – | strongest inhibitor | strongest inhibitor | ~1 µM
[Pb+2] [Pb^2+, reference compound] | – | 50 ± 5 µM | – | – | – | Linear specific | – | 26 ± 12 µM | – | Linear specific | 135 ± 13 µM | – | – | – | Linear specific | – | – | – | – | –
